# Test results as given in the Deep4Chem optical property database.
# Assay: photoluminescence quantum yield (fraction); solvent given as SMILES
smiles,measurement,setting,value
CCn1c2ccccc2c2ccc(-c3ccc(OC)cc3)cc21,photoluminescence quantum yield,in C1CCCCC1,0.22
CC(C)[Si](C#Cc1ccc(C#C[Si](C(C)C)(C(C)C)C(C)C)c2nc3c(ccc4ccccc43)nc12)(C(C)C)C(C)C,photoluminescence quantum yield,in CCCCCC,0.05
C[n+]1ccc(/C=C/c2ccc(N(c3ccccc3)c3ccc(/C=C/c4cc[n+](C)cn4)cc3)cc2)nc1,photoluminescence quantum yield,in OCC(O)CO,0.026
CCOC(=O)/C=C/C1=[N+]2C(=C(c3c(C)cc(C)cc3C)c3ccc(/C=C/C(=O)OCC)n3[B-]2(F)F)C=C1,photoluminescence quantum yield,in ClCCl,0.98
CCOC(=O)CN1C(=O)C2=C(c3ccc(C#N)cc3)N(CC(=O)OCC)C(=O)C2=C1c1ccccc1,photoluminescence quantum yield,in CC#N,0.75
same,photoluminescence quantum yield,in CS(C)=O,0.51
same,photoluminescence quantum yield,in Cc1ccccc1,0.43
CN(C)CCN(Cc1c2ccccc2cc2ccccc12)c1ccc([N+](=O)[O-])cc1[N+](=O)[O-],photoluminescence quantum yield,in C1CCCCC1,0.0001
same,photoluminescence quantum yield,in C1CCOC1,0.0004
same,photoluminescence quantum yield,in CC#N,0.0185
same,photoluminescence quantum yield,in CC(C)=O,0.0043
same,photoluminescence quantum yield,in CCO,0.0087
same,photoluminescence quantum yield,in CN(C)C=O,0.0293
same,photoluminescence quantum yield,in CO,0.0093
same,photoluminescence quantum yield,in CS(C)=O,0.0426
same,photoluminescence quantum yield,in ClC(Cl)Cl,0.0009
same,photoluminescence quantum yield,in ClCCl,0.0057
Cc1cc(-c2ccc(-c3nc4ccccc4[nH]3)cc2)ccc1-c1ccc(-c2nc3ccccc3[nH]2)cc1,photoluminescence quantum yield,in CN(C)C=O,0.82
Cc1cc(-c2ccc(-c3n(C)c4ccccc4[n+]3C)cc2)ccc1-c1ccc(-c2n(C)c3ccccc3[n+]2C)cc1,photoluminescence quantum yield,in O,0.65
COc1ccc2c(c1)sc1[n+]2[B-](F)(F)OC(c2ccc(N(C)C)cc2)=N1,photoluminescence quantum yield,in C1CCOC1,0.8
same,photoluminescence quantum yield,in CC#N,0.38
same,photoluminescence quantum yield,in CC(C)=O,0.56
same,photoluminescence quantum yield,in Cc1ccccc1,0.88
same,photoluminescence quantum yield,in ClCCl,0.83
CCOC(=O)c1ccc2c(c1)[se]c1c3ccc(C(=O)OCC)cc3[se]c21,photoluminescence quantum yield,in CCCO,0.002
Clc1ncc(-c2c3ccccc3c(-c3cnc(Cl)nc3)c3ccccc23)cn1,photoluminescence quantum yield,in CCO,0.22
same,photoluminescence quantum yield,in ClCCl,0.78
c1ccc2c(c1)OP1(=NP(Oc3ccc4ccc5cccc6ccc3c4c56)(Oc3ccc4ccc5cccc6ccc3c4c56)=NP(Oc3ccc4ccc5cccc6ccc3c4c56)(Oc3ccc4ccc5cccc6ccc3c4c56)=N1)Oc1ccccc1-2,photoluminescence quantum yield,in ClCCl,0.89
COc1cc2c(cc1/C=C(\C#N)c1nc3ccccc3s1)c1ccccc1n2C,photoluminescence quantum yield,in C1CCOC1,0.002
same,photoluminescence quantum yield,in CC#N,0.001
same,photoluminescence quantum yield,in CCOC(C)=O,0.003
same,photoluminescence quantum yield,in CN(C)C=O,0.003
same,photoluminescence quantum yield,in CO,0.001
same,photoluminescence quantum yield,in CS(C)=O,0.004
same,photoluminescence quantum yield,in Cc1ccccc1,0.003
same,photoluminescence quantum yield,in ClC(Cl)Cl,0.003
same,photoluminescence quantum yield,in ClCCl,0.003
Cc1c(C)c(B(c2c(C)c(C)c(N3c4ccccc4Oc4ccccc43)c(C)c2C)c2c(C)c(C)c(N3c4ccccc4Oc4ccccc43)c(C)c2C)c(C)c(C)c1C#N,photoluminescence quantum yield,in c1ccc([Si](c2ccccc2)(c2ccc(-n3c4ccccc4c4ccccc43)cc2)c2ccc(-n3c4ccccc4c4ccccc43)cc2)cc1,0.75
CC(=O)c1ccc(C#Cc2ccc(-c3cc(N(C)C)c4ccccc4c3)cc2)cc1,photoluminescence quantum yield,in ClCCl,0.03
F[B-]12Oc3ccccc3-c3c4[n+]5c(c([n+]31)-c1ccccc1O2)-c1ccccc1O[B-]5(F)Oc1ccccc1-4,photoluminescence quantum yield,in ClCCl,0.29
CCCCCCc1cc2c(s1)-c1cc3c(cc1NB2c1ccccc1)-c1sc(CCCCCC)cc1B(c1ccccc1)N3,photoluminescence quantum yield,in ClCCl,0.2
C(#Cc1cccc2cc(-c3ccccc3)c3cc(-c4cc[b-]5c(c4)c(-c4ccccc4)cc4cccc(C#Cc6ccccc6)[n+]54)cc[b-]3[n+]12)c1ccccc1,photoluminescence quantum yield,in C1CCCCC1,0.02
N#Cc1c(N2CCCCC2)cc(-c2cccs2)c2c1-c1cccc3cccc-2c13,photoluminescence quantum yield,in O,0.3
CCCCN(CCCC)c1ccc2c#cc3cc4c#cc5ccc(C(F)(F)F)cc5c#cc#cc5cc(N(CCCC)CCCC)ccc5c#cc4cc3c#cc3ccc(C(F)(F)F)cc3c#cc#cc2c1,photoluminescence quantum yield,in ClCCl,0.33
CCCCCCCCC1(CCCCCCCC)c2cc(-c3ccc(C(=O)OC)cc3)ccc2-c2ccc(-c3ccc(C(=O)OC)cc3)cc21,photoluminescence quantum yield,in ClC(Cl)Cl,0.94
CCOC(=O)c1ccc2c(c1)[nH]c1c3ccc(C(=O)OCC)cc3sc21,photoluminescence quantum yield,in CCCO,0.45
CCCCCCCCC1(CCCCCCCC)c2cc3c(cc2-c2sc(-c4ccc(/C=C5\SC(SCC)=NC5=O)c5nsnc45)cc21)C(CCCCCCCC)(CCCCCCCC)c1cc(-c2ccc(/C=C4\SC(SCC)=NC4=O)c4nsnc24)sc1-3,photoluminescence quantum yield,in C1CCOC1,0.053
same,photoluminescence quantum yield,in ClC(Cl)Cl,0.059
O=C1C(=c2c(=O)c3c4ccccc4cc4cc5ccccc5c2c43)C(=O)c2ccccc21,photoluminescence quantum yield,in C1CCOC1,0.235
same,photoluminescence quantum yield,in CC#N,0.09
same,photoluminescence quantum yield,in CCCCCC,0.292
same,photoluminescence quantum yield,in Cc1ccccc1,0.268
same,photoluminescence quantum yield,in ClCCl,0.193
C[Si](C)(C)[Si](C)(C)c1cccc2cc3ccccc3cc12,photoluminescence quantum yield,in C1CCCCC1,0.38
same,photoluminescence quantum yield,in CC#N,0.16
Cc1ccc(/C2=c3\cc/c(o3)=C(\c3ccc(C)cc3)c3ccc([nH]3)-c3ccc4n3[P-](=O)(=O)[N+]3=C(C=CC3=C4c3ccc[nH]3)c3ccc2[nH]3)cc1,photoluminescence quantum yield,in ClC(Cl)Cl,0.15
CC1=[N+]2C(=Cc3cccn3[B-]2(F)F)C=C1,photoluminescence quantum yield,in CCCCCC,0.96
same,photoluminescence quantum yield,in CO,1
same,photoluminescence quantum yield,in ClCCl,0.92
CCn1c2ccccc2c2cc(C#Cc3cc(C#Cc4ccc5c(c4)c4ccccc4n5CC)nc(C#N)n3)ccc21,photoluminescence quantum yield,in C1CCOC1,0.66
same,photoluminescence quantum yield,in CCOC(C)=O,0.68
same,photoluminescence quantum yield,in CN(C)C=O,0.21
same,photoluminescence quantum yield,in Cc1ccccc1,0.81
same,photoluminescence quantum yield,in ClCCl,0.65
CC(C)(C)c1ccc2oc(-c3ccc(-c4nc5cc(C(C)(C)C)ccc5o4)s3)nc2c1,photoluminescence quantum yield,in C1CCCCC1,0.8
same,photoluminescence quantum yield,in C1CCOC1,0.78
same,photoluminescence quantum yield,in CC1CCCCC1,0.66
same,photoluminescence quantum yield,in CC#N,0.76
same,photoluminescence quantum yield,in CCCCO,1
same,photoluminescence quantum yield,in CCO,1
same,photoluminescence quantum yield,in CN(C)C=O,0.87
same,photoluminescence quantum yield,in Cc1ccccc1,1
same,photoluminescence quantum yield,in Clc1ccccc1Cl,0.96
same,photoluminescence quantum yield,in c1ccccc1,0.82
CCCCCCN1C(=O)c2cccc3c(-c4ccc(-c5cc(-c6ccc(Cl)cc6)n(-c6ccccc6)n5)s4)ccc(c23)C1=O,photoluminescence quantum yield,in ClCCl,0.33
CC(C)(C)NC(=O)c1cc2ccccc2c2ccc3c4ccccc4c4ccccc4c3c12,photoluminescence quantum yield,in ClCCl,0.06
CN1c2cc3nc4cc(Cl)c(Cl)cc4nc3cc2N(C)C1(C)C,photoluminescence quantum yield,in CCO,0.7
CN(C)c1ccc2c(c1)C(C)(C)C1=CC(=[N+](C)C)C=CC1=C2C#Cc1ccccc1,photoluminescence quantum yield,in CO,0.148
same,photoluminescence quantum yield,in O,0.047
C[Si]1(C)O[Si](C)(C)c2cc3nc4ccc(Cl)cc4c(-c4ccccc4)c3cc2[Si](C)(C)O1,photoluminescence quantum yield,in ClCCl,0.29
CN(C)c1ccc(/C=C/C=C2\CC/C(=C\c3ccc(N(C)C)cc3)C2=O)cc1,photoluminescence quantum yield,in C1CCOC1,0.16
same,photoluminescence quantum yield,in CC#N,0.29
same,photoluminescence quantum yield,in CC(C)=O,0.31
same,photoluminescence quantum yield,in CC(C)O,0.33
same,photoluminescence quantum yield,in CCCCCC,0.007
same,photoluminescence quantum yield,in CCCCO,0.36
same,photoluminescence quantum yield,in CCCCOC(C)=O,0.16
same,photoluminescence quantum yield,in CCCO,0.34
same,photoluminescence quantum yield,in CCO,0.23
same,photoluminescence quantum yield,in CCOC(=O)c1ccccc1,0.24
same,photoluminescence quantum yield,in CCOC(C)=O,0.2
same,photoluminescence quantum yield,in CCOCC,0.073
same,photoluminescence quantum yield,in CN(C)C=O,0.36
same,photoluminescence quantum yield,in CO,0.11
same,photoluminescence quantum yield,in CS(C)=O,0.4
same,photoluminescence quantum yield,in Cc1ccccc1,0.11
same,photoluminescence quantum yield,in ClC(Cl)(Cl)Cl,0.068
same,photoluminescence quantum yield,in ClC(Cl)Cl,0.27
same,photoluminescence quantum yield,in ClCCl,0.36
same,photoluminescence quantum yield,in Clc1ccccc1Cl,0.24
same,photoluminescence quantum yield,in S=C=S,0.13
same,photoluminescence quantum yield,in c1ccccc1,0.13
same,photoluminescence quantum yield,in c1ccncc1,0.38
COC(=O)C([NH3+])Cc1ccc2oc(-c3ccncc3)nc2c1 (centres undefined),photoluminescence quantum yield,in CC1CCCCC1,0.01
same,photoluminescence quantum yield,in CC#N,0.05
same,photoluminescence quantum yield,in CO,0.18
same,photoluminescence quantum yield,in O,0.22
CCCCCCC1(CCCCCC)c2cc(-c3ccc(-c4ccc(-c5ccc(-c6ccc7c(c6)C(CCCCCC)(CCCCCC)c6cc(-n8c9ccc(-n%10c%11ccccc%11c%11ccccc%11%10)cc9c9cc(-n%10c%11ccccc%11c%11ccccc%11%10)ccc98)ccc6-7)s5)c5nsnc45)s3)ccc2-c2ccc(-n3c4ccc(-n5c6ccccc6c6ccccc65)cc4c4cc(-n5c6ccccc6c6ccccc65)ccc43)cc21,photoluminescence quantum yield,in ClCCl,0.15
Cc1cc(C)c(B2c3cc(C(C)(C)C)cc4ccc5ccc6cc(C(C)(C)C)cc2c6c5c34)c(C)c1,photoluminescence quantum yield,in C1CCCCC1,0.79
CCCCC1(CCCC)c2cc(C#Cc3ccc(C=C4c5ccccc5C=Cc5ccccc54)cc3)ccc2-c2ccc(C#Cc3ccc(C=C4c5ccccc5C=Cc5ccccc54)cc3)cc21,photoluminescence quantum yield,in C1CCOC1,0.00084
CCCCC(CC)COc1ccc2nc(-c3ccc(-c4ccc(N(C)C)cc4)s3)sc2c1 (centres undefined),photoluminescence quantum yield,in ClCCl,0.94
Cc1ccc(CN2/C(=C/C=C3\CCCC(/C=C/C4=[N+](Cc5ccc(C)cc5)c5ccccc5C4(C)C)=C3Cl)C(C)(C)c3ccccc32)cc1,photoluminescence quantum yield,in CCO,0.132
F[Si](c1ccccc1)(c1ccccc1)c1c2ccccc2cc2ccccc12,photoluminescence quantum yield,in C1CCOC1,0.86
same,photoluminescence quantum yield,in ClC(Cl)Cl,0.52
CCCCCCCCn1c(=O)c2cc3cc4cc5c(=O)n(CCCCCCCC)c(=O)c5cc4c(C#Cc4ccc(N(c5ccccc5)c5ccccc5)cc4)c3cc2c1=O,photoluminescence quantum yield,in ClC(Cl)Cl,0.39
COc1ccc(-c2cnc(-c3ccccc3)o2)cc1OC,photoluminescence quantum yield,in ClCCl,0.19
c1ccc(-c2ncc3ccccn23)cc1,photoluminescence quantum yield,in ClC(Cl)Cl,0.05
COc1cc2c(cc1-c1ccncc1)Cc1c3c(c4c(c1-2)-c1cc(OC)c(-c2ccncc2)cc1C4)C(=O)N(CCC(C)C)C3=O,photoluminescence quantum yield,in C1CCOC1,0.42
c1ccc(-c2cc3cc4ccccc4cc3p2-c2ccccc2)cc1 (centres undefined),photoluminescence quantum yield,in ClCCl,0.035
CN(C)c1ccc(C2=Cc3c4ccccc4c4ccccc4[n+]3[B-](F)(F)O2)cc1,photoluminescence quantum yield,in C1CCOC1,0.585
same,photoluminescence quantum yield,in C1COCCO1,0.855
same,photoluminescence quantum yield,in CC1CCCCC1,1
same,photoluminescence quantum yield,in CC#N,0.447
same,photoluminescence quantum yield,in CCOC(C)=O,0.655
same,photoluminescence quantum yield,in CCOCC,0.999
same,photoluminescence quantum yield,in CN(C)C=O,0.323
same,photoluminescence quantum yield,in CO,0.471
same,photoluminescence quantum yield,in COC(C)=O,0.441
same,photoluminescence quantum yield,in ClC(Cl)Cl,0.811
